According to ChEMBL document CHEMBL5303573, “Mapping human microbiome drug metabolism by gut bacteria and their genes” (Nature, 2019):

Columns and labels:
[1] = biological target: T1, Flavodoxin (Collinsella aerofaciens, UniProt A4ED08); test: (§1) The drug is tested on Collinsella aerofaciens strain: ATCC25986 for biotransformation. The drug concentrations were measured before and after a 12-h incubation by liquid-chromatography-coupled mass spectrometry (LC–MS); format: ADME; design: dose 2 uM; details: 2 µM
T1 sequence (A4ED08 whole entry): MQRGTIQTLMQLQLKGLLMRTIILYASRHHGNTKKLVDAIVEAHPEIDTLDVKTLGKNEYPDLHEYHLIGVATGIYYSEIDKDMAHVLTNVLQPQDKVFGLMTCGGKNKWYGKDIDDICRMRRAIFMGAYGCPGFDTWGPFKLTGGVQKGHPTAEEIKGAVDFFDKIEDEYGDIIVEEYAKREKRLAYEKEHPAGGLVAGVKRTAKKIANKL

[2] = biological target: T2, Diguanylate cyclase (Collinsella aerofaciens, UniProt A4EB91); test: as §1; format: ADME; design: dose 2 uM; details: 2 µM
T2 sequence (A4EB91 whole entry): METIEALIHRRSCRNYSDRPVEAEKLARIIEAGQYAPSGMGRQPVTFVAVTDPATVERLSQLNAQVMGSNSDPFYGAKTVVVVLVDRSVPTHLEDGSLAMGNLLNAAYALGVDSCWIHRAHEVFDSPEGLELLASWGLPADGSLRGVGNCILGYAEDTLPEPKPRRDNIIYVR

[3] = biological target: T3, GDSL-like protein (Collinsella aerofaciens, UniProt A4E7D0); test: as §1; format: ADME; design: dose 2 uM; details: 2 µM
T3 sequence (A4E7D0 whole entry): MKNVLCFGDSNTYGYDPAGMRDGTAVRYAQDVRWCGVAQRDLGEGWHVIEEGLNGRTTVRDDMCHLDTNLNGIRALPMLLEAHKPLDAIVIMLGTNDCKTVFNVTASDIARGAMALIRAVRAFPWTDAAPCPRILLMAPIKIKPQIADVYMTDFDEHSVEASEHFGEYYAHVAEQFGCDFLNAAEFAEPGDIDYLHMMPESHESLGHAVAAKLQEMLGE

[4] = biological target: T4, Pyridine nucleotide-disulfide oxidoreductase (Collinsella aerofaciens, UniProt A4EBM5); test: as §1; format: ADME; design: dose 2 uM; details: 2 µM
T4 sequence (A4EBM5 whole entry): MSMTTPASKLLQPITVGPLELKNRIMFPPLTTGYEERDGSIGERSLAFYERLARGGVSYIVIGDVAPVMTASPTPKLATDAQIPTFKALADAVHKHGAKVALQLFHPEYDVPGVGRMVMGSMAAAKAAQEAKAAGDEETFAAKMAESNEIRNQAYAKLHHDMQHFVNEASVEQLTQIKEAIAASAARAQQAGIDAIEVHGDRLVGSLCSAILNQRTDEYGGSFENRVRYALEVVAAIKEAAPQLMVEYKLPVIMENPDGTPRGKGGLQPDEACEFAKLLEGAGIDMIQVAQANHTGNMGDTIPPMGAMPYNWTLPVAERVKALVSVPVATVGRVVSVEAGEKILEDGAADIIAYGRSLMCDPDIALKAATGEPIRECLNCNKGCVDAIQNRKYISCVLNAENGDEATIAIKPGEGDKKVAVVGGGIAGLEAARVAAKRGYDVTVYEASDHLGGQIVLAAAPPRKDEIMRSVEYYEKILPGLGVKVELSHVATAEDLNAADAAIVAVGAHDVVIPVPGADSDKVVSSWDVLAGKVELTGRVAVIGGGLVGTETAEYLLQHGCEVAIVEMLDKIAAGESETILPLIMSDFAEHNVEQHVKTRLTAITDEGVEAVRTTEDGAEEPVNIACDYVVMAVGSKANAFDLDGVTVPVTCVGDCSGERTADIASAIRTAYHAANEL

[5] = biological target: T5, Lipolytic enzyme, G-D-S-L family (Bacteroides thetaiotaomicron, UniProt Q8A0C5); test: The drug is tested on Bacteroides thetaiotaomicron strain: VPI-5482 for biotransformation. The drug concentrations were measured before and after a 12-h incubation by liquid-chromatography-coupled mass spectrometry (LC–MS); format: ADME; design: dose 2 uM; details: 2 µM
T5 sequence (Q8A0C5 whole entry): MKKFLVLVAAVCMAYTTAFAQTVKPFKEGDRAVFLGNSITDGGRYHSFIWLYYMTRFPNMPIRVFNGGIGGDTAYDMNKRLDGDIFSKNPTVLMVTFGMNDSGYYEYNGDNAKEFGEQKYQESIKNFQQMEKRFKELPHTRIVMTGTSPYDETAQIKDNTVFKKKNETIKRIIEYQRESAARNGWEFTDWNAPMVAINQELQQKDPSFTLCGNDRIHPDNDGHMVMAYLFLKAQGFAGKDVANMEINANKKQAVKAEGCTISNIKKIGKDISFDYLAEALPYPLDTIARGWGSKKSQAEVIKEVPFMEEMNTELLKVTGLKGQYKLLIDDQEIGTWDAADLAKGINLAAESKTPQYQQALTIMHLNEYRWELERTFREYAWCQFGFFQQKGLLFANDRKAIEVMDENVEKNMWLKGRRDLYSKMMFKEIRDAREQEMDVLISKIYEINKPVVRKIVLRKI

[6] = The drug is tested on Clostridium spiroforme strain: DSM1552 for biotransformation. The drug concentrations were measured before and after a 12-h incubation by liquid-chromatography-coupled mass spectrometry (LC–MS); details: thomasclavelia spiroformis, 2 µM
[7] = biological target: T6, Steroid 5-alpha reductase C-terminal domain-containing protein (Phocaeicola dorei, UniProt B6W0N3); test: (§2) The drug is tested on Bacteroides dorei strain: DSM17855 for biotransformation. The drug concentrations were measured before and after a 12-h incubation by liquid-chromatography-coupled mass spectrometry (LC–MS); format: ADME; design: dose 2 uM; details: 2 µM
T6 sequence (B6W0N3 whole entry): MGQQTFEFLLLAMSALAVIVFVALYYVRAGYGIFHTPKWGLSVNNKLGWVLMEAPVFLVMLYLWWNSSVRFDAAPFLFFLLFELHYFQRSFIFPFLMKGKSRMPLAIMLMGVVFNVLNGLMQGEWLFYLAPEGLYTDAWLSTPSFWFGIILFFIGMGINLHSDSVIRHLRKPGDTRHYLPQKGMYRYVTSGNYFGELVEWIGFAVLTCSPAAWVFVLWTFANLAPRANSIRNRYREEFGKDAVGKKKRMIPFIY

[8] = biological target: T7, Acyltransferase 3 domain-containing protein (Phocaeicola dorei, UniProt B6W2J3); test: as §2; format: ADME; design: dose 2 uM; details: 2 µM
T7 sequence (B6W2J3 whole entry): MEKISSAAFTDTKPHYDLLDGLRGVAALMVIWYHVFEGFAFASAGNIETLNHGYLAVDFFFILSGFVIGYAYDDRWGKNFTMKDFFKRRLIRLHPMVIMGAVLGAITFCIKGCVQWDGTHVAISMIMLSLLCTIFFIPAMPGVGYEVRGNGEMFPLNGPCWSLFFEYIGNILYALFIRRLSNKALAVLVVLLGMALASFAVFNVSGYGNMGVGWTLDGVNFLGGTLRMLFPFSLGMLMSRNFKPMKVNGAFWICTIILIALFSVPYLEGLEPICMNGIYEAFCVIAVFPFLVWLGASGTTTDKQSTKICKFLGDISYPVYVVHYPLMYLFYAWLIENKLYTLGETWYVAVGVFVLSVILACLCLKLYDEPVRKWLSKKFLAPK

| SMILES | Bacterial Biotransformation [1] | Bacterial Biotransformation [2] | Bacterial Biotransformation [3] | Bacterial Biotransformation [4] | Bacterial Biotransformation [5] | Bacterial Biotransformation [6] | Bacterial Biotransformation [7] | Bacterial Biotransformation [8] |
| --- | --- | --- | --- | --- | --- | --- | --- | --- |
| C[C@@H]1CC[C@H]2[C@@H](C)C(=O)O[C@@H]3O[C@@]4(C)CC[C@@H]1[C@]32OO4 [ARTEMISININ] | Compound NOT metabolized | Compound NOT metabolized | Compound NOT metabolized | Compound NOT metabolized | Compound NOT metabolized | Compound metabolized | Compound NOT metabolized | Compound NOT metabolized |
| COc1ccnc(C[S+]([O-])c2nc3ccc(OC(F)F)cc3[nH]2)c1OC (stereo unspecified) [PANTOPRAZOLE] | Compound NOT metabolized | Compound NOT metabolized | Compound NOT metabolized | Compound NOT metabolized | Compound NOT metabolized | – | Compound NOT metabolized | Compound NOT metabolized |
| Nc1ccc(/N=N/c2ccccc2)c(N)n1 [PHENAZOPYRIDINE] | Compound metabolized | Compound NOT metabolized | Compound NOT metabolized | Compound NOT metabolized | Compound NOT metabolized | – | Compound NOT metabolized | Compound NOT metabolized |
| CC(=O)SCC(Cc1ccccc1)C(=O)NCC(=O)OCc1ccccc1 (stereo unspecified) [RACECADOTRIL] | Compound NOT metabolized | Compound NOT metabolized | Compound NOT metabolized | Compound NOT metabolized | Compound metabolized | – | Compound NOT metabolized | Compound NOT metabolized |
| CC(=O)OCC(=O)NCCCOc1cccc(CN2CCCCC2)c1 [ROXATIDINE ACETATE] | Compound NOT metabolized | Compound NOT metabolized | Compound NOT metabolized | Compound NOT metabolized | Compound metabolized | – | Compound NOT metabolized | Compound NOT metabolized |
